Reference: patent US5521061A, “Enhancement of probe signal in nucleic acid-mediated in-situ hybridization studies” (Aprogenex, Inc., priority 1992, dated 1996)

Columns and labels:
α-satellite DNA = assay: Liquid in situ hybridization with flow cytometry, DMSO plus squalane plus additional compound (Example 5), α-satellite DNA and NR probes; assay type: cell-based; conditions: for NR Probe, mean LFL1 / α-SAT Probe, mean LFL1 / Ratio α-SAT/NR (ratio of mean LFL1): 5% additional compound with 5% squalane and 9% DMSO; for NR Probe, mean LFL1: DMSO-only control 0.175; for α-SAT Probe, mean LFL1: DMSO-only control 3.829; for Ratio α-SAT/NR (ratio of mean LFL1): DMSO-only control 22; for Increase of DNA probe signal intensity compared to 9% DMSO alone: DMSO plus squalane plus the additional compound
Description: (§1) A Coulter Profile II flow cytometer was used for flow cytometry. With FITC as the probe dye, the filter for LFL3 was a 635 nm long pass filter and the filter for LFL1 was a 540 bp filter; the excitation wavelength was 488 nm. PMT1 and PMT3 settings were adjusted as required. A typical useful setting when fluorescein is the dye moiety is to have a PMT1 setting of 1100, a PMT3 setting of 900, and color compensation (PMT1, PMT3) of 15 percent.
(§2) Liquid in Situ Cell Preparation and Hybridization Protocol
(§3) 1. Cells were fixed in solution F, then resuspended in 2x SSC.
(§4) 2. The cells were spun out of solution and resuspended in an assay solution (consisting of the hybridization cocktail HC alone or in combination with a compound or compounds being tested as an enhancer.)
(§5) 3. After 30 min. at 42° C., the cells were washed in wash solution #1 preheated to 42° C. by centrifuging them out of the assay solution.
(§6) 4. Cells were next washed in wash solution #2 preheated to 42° C.
(§7) 5. Cells were resuspended in a 1X PBS solution containing 0.002% trypan blue as a counterstain.
(§8) 6. Cells were run on a flow cytometer and a "Count vs. LFL1" histogram was generated. ("Count" refers to cell count.) This histogram was used as the basis for determining the mean LFL1.
The Liquid In Situ Cell Preparation and Hybridization Protocol was followed.
The "α-satellite" DNA probe is a target specific probe specific α-satellite DNA. Fluorescence obtained with it represents the sum of fluorescence from target-bound probe, non-specifically bound probe and autofluorescence from cellular molecules.
The effect of a combination of DMSO and squalane on the probe signal was measured as was that combination further enhanced with a third compound.
In this Example, in all but two cases, the hybridization cocktail consisted of 9 volumes of HC-DMSO, a half volume of squalane, and a half volume of an additional compound. In one case, the additional compound was replaced by water, so that the hybridization compound consisted of 9 volumes of HC-DMSO, a half volume of squalane, and a half volume of water. In the control sample, the cocktail consisted of nine volumes of HC-DMSO and one volume of water. As a result, in all samples, there was 9 percent DMSO (v/v). When present, squalane was present at 5 percent. When present, the additional compound was present at 5%.
The ratio, α-SAT/NR, is the ratio of the mean LFL1 for the α-satellite DNA probe ([…]) to the mean LFL1 for the NR probe.

[1] = tested on: Human female white blood cells (karyotype XX); assay: Signal enhancers in the mounting solution after in situ hybridization (Example 6), HXR probes, fluorescent microscope; assay type: cell-based; conditions: one volume compound plus 9 volumes mounting solution; rhodamine HXR probes; water control = 1
Experimental: After the in situ hybridization step, the cells were washed and then modified mounting solution was added and cells were observed under the microscope for fluorescence signal. Modified mounting solution was 9 volumes of mounting solution and one volume of additional compound, which was the compound being tested for its ability to be a signal enhancer. Mounting solution consisted of 0.1% 1,4 diphenylamine (antifade) in 50% glycerol (v/v), and nuclear stain Hoechst (#33258; 1 ug/ml).
Human female white blood cells (karyotype XX) were hybridized at 85° C. for 15 minutes with female chromosome HXR probes labelled with a rhodamine fluor. Cells were washed with wash buffers #1 and #2, and then suspended in a modified mounting solution. The additional compound in the modified mounting solution was varied; as a control, water was used as the additional compound. The signal intensity was observed under the fluorescent microscope.

Hela cells = assay: Liquid in situ hybridization with flow cytometry, DMSO plus additional compound (Example 4), 28S RNA and NR probes; assay type: cell-based; conditions: for 28S RNA Probe, mean LFL1 / NR Probe, mean LFL1 / Ratio 28S RNA/NR (ratio of mean LFL1): 10% additional compound with 9% DMSO; for 28S RNA Probe, mean LFL1: FITC 28S RNA probe, water control 6.070, average of four experiments; for NR Probe, mean LFL1: FITC NR probe (non-specific binding and autofluorescence), water control 0.137; for Ratio 28S RNA/NR (ratio of mean LFL1): water control 44; for Signal brightness compared to nine percent DMSO alone: additional compound in combination with nine percent DMSO
Description: as §1, §2, §3, §4, §5, §6, §7, §8
The effect on probe signal intensity of adding, in addition to DMSO, additional compounds to the assay solution was determined in an in situ liquid hybridization assay. The data was analyzed by flow cytometry.
The Liquid In Situ Cell Preparation and Hybridization Protocol was followed. The cells used were Hela cells. The probes used were a 28S RNA probe (SEQ ID NO: 1) and an NR probe.
The 28S RNA probe (SEQ ID NO: 1) is a target-specific probe specific for ribosomal RNA fluorescence obtained with it represents the sum of fluorescence from target-bound probe, non-specifically bound probe and autofluorescence from cellular molecules. The NR probe (SEQ ID NO: 2) is specific for a plant nucleic acid sequence and, in the current Example, the fluorescence obtained with it represent the sum of fluorescence from non-specifically bound probe and autofluorescence.
(§9) In this experiment, the hybridization cocktail consisted of nine volumes of HC-DMSO plus one volume of additional compound. In the control sample, one volume of water replaced the one volume of additional compound. As a result, in all samples, the concentration of DMSO was 9 percent (v/v).
The ratio, 28S/NR, is the ratio of the mean LFL1 observed with the 28S RNA probe (SEQ ID NO: 1) to the mean LFL1 observed with the NR probe (SEQ ID NO: 2). The results in the "28S RNA probe" and "NR probe" columns give the mean LFL1 observed with the 28S RNA and NR probes, respectively (SEQ ID NO: 1 and SEQ ID NO: 2, respectively).

Hepg 2 cells = assay: Slide in situ hybridization, DMSO plus one additional compound (Example 2), HYR probe; assay type: cell-based, human; conditions: 10% (v/v) additional compound with 9% DMSO; slide rating x 0.5, water control = 2; average of four experiments
Experimental: Slide in situ Cell Preparation and Hybridization Protocol
1) Cells were suspended in a fixative (3 vol ethanol plus 1 vol methanol) and transferred to glass slides by centrifugation using a Cytospin apparatus.
2) The assay solution (consisting of the hybridization cocktail HC alone or mixed with a compound or compounds being tested as an enhancer) with the DNA probe (25 ul) was placed over the cells and covered with a coverslip.
3) The slide was heated at 90° C. for 5 minutes for DNA denaturation, then incubated at 46° C. for 30 minutes for hybridization.
4) Cells were washed once with the wash solution #1, which was equilibrated at 42° C. Then cells were washed ten times with wash solution #2, which was equilibrated at 42° C.
5) Mounting solution (50% glycerol (v/v) in 1×PBS plus the nuclear stain Hoechst, (#33258; 1 ug/ml) was placed on the cells and covered with a coverslip.
6) The hybridization signal was observed under an Olympus BH10 microscope with fluorescent capabilities using a rhodamine derivative filters (excitation wavelength of 567 nm, emission wavelength of 584 nm).
The inclusion of DMSO in an in situ assay solution increased the permeation of the nucleic acid probes into the cells and gave hybridization signal in over 95% of the cells. In this Example, we show the effect of adding, in addition to DMSO, 10 percent (v/v) of an additional compound to the assay solution. The additional compounds added were: squalane (an aliphatic alkane), dodecyl alcohol (an alcohol), beta-cyclodextrin (a sugar), isopropyl palmitate (a fatty acid ester), 1,2, propanediol (an alcohol), pyrrolidinone (a lactam) and hexamethyldisiloxane (an organic silane).
In this Example, the hybridization cocktail consisted of nine volumes of HC-DMSO plus one volume of an additional compound. In the control sample, one volume of water was added instead of one volume of additional compound. As a result, in all samples, the concentration of DMSO in the cocktail was 9 percent (v/v).
The Slide In Situ Cell Preparation and Hybridization protocol was followed. The cells used were Hepg 2 cells. The probe used was an HYR probe specific for human Y chromosome α-satellite DNA repeated sequences; at its 5' end, via an Aminolink linker molecule, the probe was linked to a Texas Red moiety. A signal intensity of 4 was assigned to the slide in which the assay solution was HC plus 10% DMSO (control slide) and all other slides were rated 1, 2, 3 or 4 in comparison to the control slide, depending on whether the intensity was 1, 2, 3, or 4 times that of the control slide, respectively.
The results are an average of four independent experiments.

[2] = Precipitation of additional compound from the hybridization cocktail (Example 4); assay type: physicochemical; conditions: 10 percent in hybridization cocktail (HC-DMSO)
Description: as §9

| Compound | NR Probe, mean LFL1 (α-satellite DNA) | α-SAT Probe, mean LFL1 (α-satellite DNA) | Ratio α-SAT/NR (ratio of mean LFL1) (α-satellite DNA) | Increase of DNA probe signal intensity compared to 9% DMSO alone (α-satellite DNA) | Signal Intensity Scale of 1 to 4 [1] | 28S RNA Probe, mean LFL1 (Hela cells) | NR Probe, mean LFL1 (Hela cells) | Ratio 28S RNA/NR (ratio of mean LFL1) (Hela cells) | Signal brightness compared to nine percent DMSO alone (Hela cells) | Fluorescent signal (Scale of 1 to 4) (Hepg 2 cells) | Signal intensity after precipitation (biphasic mixture) (Hela cells; 10 percent compound with 9% DMSO) | Precipitation from solution [2] |
| --- | --- | --- | --- | --- | --- | --- | --- | --- | --- | --- | --- | --- |
| CC(O)CO (centres unmarked) [1,2-propanediol] | 0.151 | 5.876 | 39 | 1,8 fold | 4 | 8.227 | 0.148 | 56 | increased the signal brightness | 2 |  |  |
| O=C1CCCN1 [2-pyrrolidinone] | 0.135 | 10.38 | 77 | 3.5 fold | 3 | 10.19 | 0.133 | 77 | increased the signal brightness | 2 |  |  |
| OC[C@H]1O[C@@H]2O[C@H]3[C@H](O)[C@@H](O)[C@@H](O[C@H]4[C@H](O)[C@@H](O)[C@@H](O[C@H]5[C@H](O)[C@@H](O)[C@@H](O[C@H]6[C@H](O)[C@@H](O)[C@@H](O[C@H]7[C@H](O)[C@@H](O)[C@@H](O[C@H]8[C@H](O)[C@@H](O)[C@@H](O[C@H]1[C@H](O)[C@H]2O)O[C@@H]8CO)O[C@@H]7CO)O[C@@H]6CO)O[C@@H]5CO)O[C@@H]4CO)O[C@@H]3CO [beta-cyclodextrin] | 0.131 | 3.720 | 29 |  |  | 9.593 | 0.135 | 71 | increased the signal brightness | 1.5 |  |  |
| C[Si](C)(C)O[Si](C)(C)C [hexamethyldisiloxane] |  |  |  |  | 2 | 7.426 | 0.126 | 59 | increased the signal brightness | 1 |  |  |
| CCCCCCCCCCCCCCCC(=O)OC(C)C [isopropyl palmitate] | 0.117 | 5.988 | 52 | 2.4 fold | 4 | 8.057 | 0.140 | 58 | increased the signal brightness | 1.5 |  |  |
| CCCCCCCC/C=C\CCCCCCCC(=O)O [oleic acid] |  |  |  |  |  | 3.643 | 0.142 | 26 |  | 2 |  |  |
| CCCCCCCC/C=C\CCCCCCCCO [oleyl alcohol] |  |  |  |  | 3 | 0.731 | 0.136 |  |  | 1.5 | markedly decreased | precipitation from solution |
| CC(C)=CCC/C(C)=C/CC/C(C)=C/CC/C=C(\C)CC/C=C(\C)CCC=C(C)C [squalene] |  |  |  |  | 3 |  |  |  |  |  |  |  |
| hydroxypropylcyclodextrin |  |  |  |  | 2 |  |  |  |  |  |  |  |
